Measurements from patent US10858360B2, “Tricyclic gyrase inhibitors” (priority 2011, dated 2020).
≈ marks a conversion by molar mass, not a printed value.

Columns and labels:
E. coli ATCC 25922 = experiment: MIC, E. coli ATCC 25922; type: cell-based; conditions: Alamar Blue read after overnight incubation at 35° C.; for MIC: Escherichia coli, ATCC25922, E. coli; for MIC Ec: E. coli
S. aureus ATCC 13709 = experiment: MIC, S. aureus ATCC 13709 (Alamar Blue broth microdilution); type: cell-based; conditions: Alamar Blue read after overnight incubation at 35° C.; for MIC: Staphylococcus aureus, ATCC13709, S. aureus; for MIC Sa: S. aureus

SMILES	MIC (E. coli ATCC 25922) [µg/mL]	MIC (S. aureus ATCC 13709) [µg/mL]	MIC Ec (E. coli ATCC 25922) [µg/mL]	MIC Sa (S. aureus ATCC 13709) [µg/mL]
CNc1cccc2c1[nH]c1nc(Sc3cncc(S(=O)(=O)NC)c3)nc(N3CC4C(N)C4C3)c12 (centres unmarked) [1.36]	4 (≈ 8.05 µM)	2 (≈ 4.03 µM)		
CNc1cc(F)cc2c1[nH]c1nc(Oc3cnc(C(C)(C)C)nc3)nc(N3CC4C(N)C4C3)c12 (centres unmarked) [4.314]	≤ 0.5	≤ 0.5		
CNc1cc(F)cc2c1[nH]c1nc(Oc3cnc(C(C)(C)C)nc3)nc(N3C[C@H](N)C4(CC4)C3)c12 [4.315]	≤ 0.5	≤ 0.5		
CNc1cccc2c1[nH]c1nc(Sc3cnc4cccnc4c3)nc(N3CC4C(N)C4C3)c12 (centres unmarked) [1.24]			1 (≈ 2.2 µM)	≤0.5
CNc1cc(F)cc2c1[nH]c1nc(Oc3cnc(C)nc3)nc(N3CC4CCC(N)C4C3)c12 (centres unmarked) [4.102]			2 (≈ 4.46 µM)	≤0.5
CNc1cc(F)cc2c1[nH]c1nc(Oc3ccnnc3)nc(N3CC(N)C4(CC4)C3)c12 (centres unmarked) [4.230]			>16	32 (≈ 76.1 µM)
CNc1cc(F)cc2c1[nH]c1nc(Oc3cnc(C)nc3)nc(N3CC4C(CN)C4C3)c12 (centres unmarked) [4.106]			2 (≈ 4.6 µM)	≤0.5
CNc1cccc2c1[nH]c1nc(Sc3cnc4cccnc4c3)nc(N3C[C@H](N)C[C@H]3C)c12 [1.61]	64 (≈ 140 µM)	8 (≈ 17.5 µM)		
CNc1cc(F)cc2c1[nH]c1nc(Oc3cncnc3)nc(N3CC(C)C(CN)C3)c12 (centres unmarked) [4.023]			1 (≈ 2.37 µM)	≤0.5
CNc1cc(F)cc2c1[nH]c1nc(Oc3cnc(N)nc3)nc(N3CCCC(N)C3)c12 (centres unmarked) [4.180]			8 (≈ 18.9 µM)	1 (≈ 2.36 µM)
CNc1cc(F)cc2c1[nH]c1nc(Oc3ccc4nc5n(c(=O)c4c3)CCC5)nc(N3CC4(CCC4N)C3)c12 (centres unmarked) [4.377]			16 (≈ 30.4 µM)	4 (≈ 7.6 µM)
CNc1cc(F)cc2c1[nH]c1nc(Oc3cncnc3)nc(N3C[C@@H](N)C4(CC4)C3)c12 [4.006]	1 (≈ 2.38 µM)	≤ 0.5		
CNc1cc(F)cc2c1[nH]c1nc(Oc3cnc(C)nc3)nc(N3CC(NCCO)C4(CC4)C3)c12 (centres unmarked) [4.089]			≤0.5	≤0.5
CNc1cc(F)cc2c1[nH]c1nc(Oc3cnc(C)nc3)nc(N3CC4CCNC4(C)C3)c12 (centres unmarked) [4.116]			≤0.5	≤0.5
CNc1cc(F)cc2c1[nH]c1nc(Oc3cncnc3)nc(N3CC4C(CN)C4C3)c12 (centres unmarked) [4.004]	2 (≈ 4.76 µM)	≤ 0.5		
CCOC(=O)c1ncc(Oc2nc(N3CC4CC3C[C@@H]4N)c3c(n2)[nH]c2c(NC)cc(F)cc23)cn1 (some centres unmarked) [4.400]	≤ 0.5	≤ 0.5		
CNc1cc(F)cc2c1[nH]c1nc(Oc3cnc(C)nc3)nc(NC3CCCC[C@@H]3N)c12 (some centres unmarked) [4.109]			1 (≈ 2.29 µM)	≤0.5
CNc1cccc2c1[nH]c1nc(Oc3cnc(C)nc3)nc(N3CC[C@@H](N)C3)c12 [3.5]	≤ 0.5	0.25 (≈ 0.64 µM)		
CNc1cc(F)cc2c1[nH]c1nc(Oc3cnc4cccnc4c3)nc(N3CC4CC[C@@H](N)[C@H]4C3)c12 (some centres unmarked) [4.047]	≤ 0.5	≤ 0.5		
CNc1cccc2c1[nH]c1nc(Oc3cnc(OC)c(OC)c3)nc(N3CC[C@@H](N)C3)c12 [3.2]	16 (≈ 36.7 µM)	4 (≈ 9.19 µM)		
CNc1cc(F)cc2c1[nH]c1nc(Oc3cnc4c(c3)ncn4C3CC3)nc(N3CC(N)C3)c12 [4.364]			4 (≈ 8.71 µM)	≤0.5
CNc1cc(F)cc2c1[nH]c1nc(Oc3cnc(CC(=O)N4CCC(N)C4)nc3)nc(N3CC(N)C4(CC4)C3)c12 (centres unmarked) [4.372]			16 (≈ 29.3 µM)	4 (≈ 7.32 µM)
CNc1cc(F)cc2c1[nH]c1nc(Oc3cnc(N)nc3)nc(N3C4CCC3CC(N)C4)c12 (centres unmarked) [4.183]	8 (≈ 17.8 µM)	1 (≈ 2.22 µM)		

SMILES	MIC (E. coli ATCC 25922) [µg/mL]	MIC (S. aureus ATCC 13709) [µg/mL]	MIC Ec (E. coli ATCC 25922) [µg/mL]	MIC Sa (S. aureus ATCC 13709) [µg/mL]
CNc1cc(F)cc2c1[nH]c1nc(Oc3cnc(C)nc3)nc(N3CCCC4(CC4N)C3)c12 (centres unmarked) [4.101]			≤0.5	≤0.5
CCOC(=O)c1ncc(Oc2nc(N3CC4C[C@@H](N)C4C3)c3c(n2)[nH]c2c(NC)cc(F)cc23)cn1 (some centres unmarked) [4.401]	≤ 0.5	≤ 0.5		
CNc1cc(F)cc2c1[nH]c1nc(Oc3cnc(C)nc3)nc(N3CC4CCC(N)C4C3)c12 (centres unmarked) [4.075]			≤0.5	≤0.5
CNc1cc(F)c(F)c2c1[nH]c1nc(Oc3cnc(C)nc3)nc(N3CC(N)C3)c12 [5.06]			≤0.5	≤0.5
CNc1cc(F)cc2c1[nH]c1nc(Oc3cnc(CCO)nc3)nc(N3CC4C[C@@H](N)C4C3)c12 (some centres unmarked) [4.415]	1 (≈ 2.15 µM)	≤ 0.5		
CNc1cc(F)cc2c1[nH]c1nc(Oc3cncc([S+](C)[O-])c3)nc(N3CC4C(N)C4C3)c12 (centres unmarked) [4.351]			2 (≈ 4.28 µM)	≤0.5
CNc1cc(F)cc2c1[nH]c1nc(Oc3cnc(C)nc3)nc(N3CCC4(CNC4)C3)c12 [4.125]			4 (≈ 9.21 µM)	≤0.5
CNc1cccc2c1[nH]c1nc(Oc3cncc(C(N)=O)c3)nc(N3CC4C(N)C4C3)c12 (centres unmarked) [3.19]	32 (≈ 74.3 µM)	8 (≈ 18.6 µM)		
CNc1cc(F)cc2c1[nH]c1nc(Oc3cccnc3)nc(N3CC4CC(N)C4C3)c12 (centres unmarked) [4.348]			≤0.5	≤0.5
CNc1cc(F)cc2c1[nH]c1nc(Oc3cnc(C)nc3)nc(N3C[C@@H]4CCN[C@@H]4C3)c12 [4.156]	≤ 0.5	≤ 0.5		
CNc1cc(F)cc2c1[nH]c1nc(Oc3cnc(CN)nc3)nc(N3CC4CC(N)C4C3)c12 (centres unmarked) [4.394]			≤0.5	≤0.5
CNc1cc(F)cc2c1[nH]c1nc(Oc3cnc(C4CC4)nc3)nc(N3CCC(N)C3)c12 (centres unmarked) [4.243]			≤0.5	≤0.5
CNc1cc(F)c(F)c2c1[nH]c1nc(Oc3cnc(CO)nc3)nc(N3C[C@H]4C[C@@H]3C[C@H]4N)c12 [5.14]	≤ 0.5	≤ 0.5		
CNc1cc(F)cc2c1[nH]c1nc(Oc3cncc(-c4nnn(C)n4)c3)nc(N3CC4C(N)C4C3)c12 (centres unmarked) [4.210]			1 (≈ 2.05 µM)	≤0.5
CNc1cc(F)cc2c1[nH]c1nc(Oc3cnc(C)nc3)nc(N3CC4CCC(CN)C4C3)c12 (centres unmarked) [4.112]			1 (≈ 2.16 µM)	≤0.5
CNc1cccc2c1[nH]c1nc(Oc3cncnc3)nc(N3CCC(CN)C3)c12 (centres unmarked) [3.58]	> 64	32 (≈ 82 µM)		
CNc1cc(F)cc2c1[nH]c1nc(Oc3cnc(C)nc3)nc(N3CC(N)CC3C)c12 (centres unmarked) [4.115]			8 (≈ 18.9 µM)	1 (≈ 2.37 µM)
CNc1cc(F)cc2c1[nH]c1nc(Oc3ccc(C#N)nc3)nc(N3CCC4(C[C@H]4N)C3)c12 (some centres unmarked) [4.334]			8 (≈ 18 µM)	≤0.5
CNc1cccc2c1[nH]c1nc(Oc3cncnc3)nc(N3C/C(=N\OC)[C@@H](N)C3)c12 [3.62]	8 (≈ 19.1 µM)	≤ 0.5		
CNc1cc(F)cc2c1[nH]c1nc(Oc3cnc(C)nc3)nc(N3CC(NC(=O)C(C)N)C4(CC4)C3)c12 (centres unmarked) [4.142]			1 (≈ 1.98 µM)	≤0.5
CNc1cccc2c1[nH]c1nc(Oc3ccc(C(=O)O)nc3)nc(N3CC4C(N)C4C3)c12 (centres unmarked) [3.22]	64 (≈ 148 µM)	16 (≈ 37.1 µM)		
CNc1cc(F)cc2c1[nH]c1nc(Oc3cnc(Cl)nc3)nc(N3CC4C(N)CC4(C)C3)c12 (centres unmarked) [4.379]			≤0.5	≤0.5
CNc1cc(F)cc2c1[nH]c1nc(Oc3cnc(C)nc3)nc(N3CC4[C@H](N)C[C@]4(C)C3)c12 (some centres unmarked) [4.146]	≤ 0.5	≤ 0.5		
